Assay results from patent US7235584B2, “Non-psychotropic cannabinoids” (Pharmos Corporation, priority 2000, dated 2007).

Key:
[1] = system: rat model of myocardial ischemia; experiment: Rat model of myocardial ischemia and reperfusion; format: in vivo, Sprague-Dawley rats; conditions: given 15 minutes before occlusion; 45 minutes occlusion, 4 hours reperfusion
Excerpt: A rat model of ischemia and reperfusion was used to test the ability of compounds to reduce the volumes of infarction is considered a measure of their potential as cardioprotectors.
The following model of myocardial infarction and heart failure was used to test the ability of compounds to reduce the volumes of infarction is considered a measure of their potential as cardioprotectors.
The methods used are essentially as described in Leor and Kloner (Leor and Klonner, Am. J Cardiol. 75:1292–3 1995). The experiment was performed in a masked fashion. In brief, Sprague-Dawley rats were given either vehicle or PRS-211,095 15 minutes before occlusion. They were subjected to 45 minutes of coronary occlusion and 4 hours of reperfusion, after which the coronary artery was reoccluded and 0.25 ml of Unisperse™ dye was injected IV to determine area of risk (AR). The rats were euthanized and hearts were analyzed as to infarct size using a 1% solution of triphenylteuazolium chloride for 15 minutes at 37° C. The area of necrosis (AN) in each heart was expressed as a percentage of the area at risk. This was multiplied by the weight of each slice to obtain the mass of tissue at risk and necrosis.

transient MCAo in rats = experiment: Transient MCAo evaluated by the staircase test; format: in vivo, Sprague Dawley rats; conditions: for staircase contralateral performance, pellet consumption (in words): administered 2 hours after start of MCAo
Excerpt: The test challenges fine motor, sensory and stereognostic function of the cortex in enabling the forepaw (hand) to identify, grasp and accurately manipulate small objects such as food pellets. Loss of the ability to identify, grasp and manipulate small objects reflects a lesion of the fronto-parietal cortex and is a common and crippling deficit after stroke in humans.
The materials for this procedure are identical to those from Physiological Example 5, except for the different concentrations of PRS-211,095. The procedural differences are as follows: • Male Sprague Dawley rats, 230–270 gr (Harlan, Israel) were used. The following compounds and their respective concentrations were tested:
Dexanabinol and analogs PRS-211,095 and PRS-211,220 in PEG ethanol cosolvent 50 mg/ml. Dexanabinol, the analogs and their vehicle were diluted in Intralipid® 20% (Pharmacia) prior to drug administration.
The procedure is essentially as described in Montoya et al. (Montoya, Campbell-Hope, Pemberton and Dunnet, J. Neurosci. Meth. 36:219–228,1991) Animals were kept under mild food deprivation for 3–5 days, receiving 15-gr. food once a day (between 16:00 and 17:00) and free access to water.
In brief, the staircase box contains two rows of seven stairs in each. Two 45 mg food pellets were placed on each step. Animals were placed in the box for 15 minutes sessions. At the end of the session the number of eaten (grasped) and displaced pellets was counted and recorded. Animals were tested twice a day, 4 hours apart. The first session was performed between 8–9 AM and second between 12–13 PM. The animals were trained until they grasped (ate) at least 8 pellets from each set of stairs for two consecutive sessions. Up to one week after the end of the successful training session the animals underwent transient MCAo.
Transient MCAO was performed in essentially the same manner as described in Physiological example 5 with the following modification at step i:
Two minutes prior to thread removal rats were re-anesthetized and administered IV with Dexanabinol 5 mg/kg, analogs
PRS-211,220 or PRS-211,095 at 0.5, 2.5, 5 or 10 mg/kg or vehicle 5 ml/kg. One additional group was sham-treated.
Animals were allowed to recover from the surgery for five days. The mild food deprivation was re-employed during the days following the ischemic insult. They were tested in the staircase box using the above method for 9–12 days. Animals were weighed twice a week during this period.
At the end of the evaluation period, animals were euthanized with pentobarbitone 100 mg/kg IP. The animals were perfused through the heart with heparinized 4% formaldehyde solution in PBS (pH 7.4). Brains were then removed, and kept in the same solution for at least 24h. Then the brains—from the rostral side of the cortex to the cerebellum—were sunk in 30% sucrose in PBS, cryosectioned (20 μm), dried and stained with thionin for histological evaluation of the brain infarct volume. Eight sections at the levels of: 3.3;+2.8;+1.8; +0.8; −0.4;−1.4; −2.2; and −3.4 from Bregma were measured (Swanson, Rat Brain Atlas, 1992). Sections were captured by a CCD camera (V-tech MP-470) and image analyzed (Scion image 1.62A). Infarct size was determined from the series of the 8 sections by either calculation of the infarct volume (mm3) by summing the series of mean lesion areas of two adjacent sections multiplied by the distance between them or calculation of the mean infarct size as percentage of the contralateral hemisphere size; calculation of the mean of the surviving ipsilateral side as percentage of the contralateral hemisphere size; calculation of the mean ipsilateral side ventricle as percentage of the contralateral hemisphere ventricle.
• a. The infarct size was compared using ANOVA (analysis of variance) followed by Duncan's post hoc test. • b. The staircase task performance was evaluated after collecting the data and compressing it into four blocks of six trials: […]

[2] = 5 mg/kg, administered 3 hours following transient MCAo

CCCCCCC(C)(C)c1cc(O)c2c(c1)OC(C)(C)C1CC=C(CSc3ncc[nH]3)CC21 (single isomer, unassigned; (+)) [211,092-000]
infarct size (AN/AR, AN/LV), FIG. 13 [1]: clear decrease in infarct size | increase in pellet consumption, session 3 (transient MCAo in rats; [2]): 58% | increase in pellet consumption, session 3 (transient MCAo in rats; 5 mg/kg, administered 6 hours following transient MCAo): 30%

CCCCCCC(C)(C)c1cc(O)c2c(c1)OC(C)(C)C1CC=C(Cn3ccnc3)CC21.Cl (single isomer, unassigned; (+)) [211,095-000, (+)-(3S ,4S )-6,6-Dimethyl-(1,1-dimethylheptyl)-1-hydroxy-9-(imidazolomethyl)-6a,7,10,10a-tetrahydro-6H-dibenzo[b,d]pyran]
staircase contralateral performance, pellet consumption (in words) (transient MCAo in rats; 0.5 mg/kg): moderately improved pellet consumption | protection of infarct volume (histopathology) (transient MCAo in rats; 2.5 mg/kg): No protection | staircase contralateral performance, pellet consumption (in words) (transient MCAo in rats; 2.5 mg/kg): moderately improved pellet consumption | displaced pellets parameter (transient MCAo in rats; 5 mg/kg): improved performance | staircase contralateral performance, pellet consumption (in words) (transient MCAo in rats; 5 mg/kg): robust improvement | increase in pellet consumption, session 3 (transient MCAo in rats; [2]): 17% | staircase contralateral performance, pellet consumption (in words) (transient MCAo in rats; 10 mg/kg): robust improvement

CCCCCCC(C)(C)c1cc(O)c2c(c1)OC(C)(C)[C@H]1CC=C(CO)CC21 (stereo partly drawn) [211,007-000, 1,1 dimethyl heptyl-(3S,4S)-7-hydroxy-Δ^6-tetrahydrocannabinol]
staircase contralateral performance, pellet consumption (in words) (transient MCAo in rats; 0.5 mg/kg): No improvement | displaced pellets parameter (transient MCAo in rats; 5 mg/kg): improved performance

CCCCCCC(C)(C)c1cc(O)c2c(c1)OC(C)(C)[C@H]1CC=C(Cn3cccn3)C[C@H]21 [211,220-000, (+)-(3S,4S)-6,6-Dimethyl-(1,1-dimethylheptyl)-1-hydroxy-9-(pyrazolomethyl)-6a,7,10,10a-tetrahydro-6H-dibenzo[b,d]pyran]
displaced pellets parameter (transient MCAo in rats; 0.5 mg/kg): improved performance | increase in pellet consumption, session 3 (transient MCAo in rats; 0.5 mg/kg, administered 3 hours following transient MCAo): 27% | increase in pellet consumption, session 3 (transient MCAo in rats; 0.5 mg/kg, administered 6 hours following transient MCAo): 40%
